Reference: US20240351999A1, “PYRROLYLACYLPIPERIDYLAMINE COMPOUND AND USE THEREOF” (INSTITUTE OF MATERIA MEDICA ,CHINESE ACADEMY OF MEDICAL …, priority 2021, published 2024)
In brackets after ≈: the same amount, converted by molar mass.

How the values were obtained:
[1] = system: Staphylococcus aureus ATCC 29213; test: In vitro antibacterial activity (MIC), microbroth dilution; type: cell-based; details: ATCC29213, 37° C., 18 h
[2] = system: Staphylococcus aureus ATCC 29213; test: In vitro induced drug resistance, 20 generations at sub-MIC; type: cell-based; details: ATCC29213, read-out: MIC value after passage for 20 generations
Protocol: Test method: MIC values of a compound 1 and a control compound DS2969 against Staphylococcus aureus ATCC 29213 were determined by using a microbroth dilution method recommended by operating procedures for antibacterial susceptibility testing of the Clinical and Laboratory Standards Institute (CLSI).
After testing the MIC values, sub-MIC concentrations (1/2 MIC) of bacteria were diluted, and the concentration of the obtained bacterial solution was adjusted to 105 CFU/mL for a next round of MIC value testing. After 24 hours of incubation, bacterial suspensions were prepared by using bacterial suspensions at sub-MIC concentrations of drugs (1/2 MIC), and another MIC testing was performed. This process was repeated for 20 times, and the MIC value for each test was recorded.
The MIC values of the compound 1 and DS2969 inducing Staphylococcus aureus ATCC29213 for 20 generations were recorded, with the number of generations of bacteria induced as an abscissa and the MIC values as an ordinate (as shown in FIG. 1).

[3] = system: Staphylococcus aureus ATCC 29213; details: prior art value; cited from earlier work
[4] = system: Escherichia coli ATCC 25922; test: In vitro antibacterial activity (MIC), microbroth dilution; type: cell-based; details: ATCC25922, 37° C., 18 h, read-out: MIC Escherichia coli ATCC 25922
[5] = system: Staphylococcus aureus (MRSA, ATCC 43300); test: Antibacterial activity in mice, sepsis model; type: in vivo, ICR mice; details: Staphylococcus aureus, po; MRSA ATCC 43300 sepsis model, intragastric administration at lower dose
Protocol: Experimental animals: Beijing Vital River Laboratory Animal Technology Co., Ltd., ICR mice, with a uniform body weight of 20-22 g, and half male and half female.
Model: Sepsis model infected by Staphylococcus aureus (MRSA, ATCC 43300)
Modeling method: mice were infected with […] (diluted with a 5% sterile yeast solution) Staphylococcus aureus (MRSA, ATCC 43300) such that sepsis models of mice were formed (0.5 mL of a bacterial solution was injected intraperitoneally into each mouse).
Experimental scheme: a compound 1 and a positive drug were first dissolved in DMSO, and then diluted with other solvents, wherein a solvent ratio was saline:Tween 80:DMSO=9:0.5:0.5.

[6] = system: Escherichia coli ECO+ 15-1; test: In vitro antibacterial activity (MIC), microbroth dilution; type: cell-based; details: 37° C., 18 h, read-out: MIC Escherichia coli ECO+ 15-1
[7] = system: Staphylococcus aureus ATCC 43300 (MRSA); test: as above; type: cell-based; details: 37° C., 18 h, read-out: MIC Staphylococcus aureus ATCC 43300 (MRSA)
[8] = system: Clostridium difficile ATCC 9689; test: as above; type: cell-based; details: Clostridioides difficile, ATCC9689; read-out: MIC Clostridium difficile ATCC 9689
[9] = system: Staphylococcus aureus MRSA 15-1; test: as above; type: cell-based; details: 37° C., 18 h
[10] = system: Mycobacterium tuberculosis; test: Activity against Mycobacterium tuberculosis (MIC); type: cell-based; details: read-out: Inhibitory activity (MIC) against Mycobacterium tuberculosis
[11] = system: Staphylococcus epidermidis ATCC 12228; test: In vitro antibacterial activity (MIC), microbroth dilution; type: cell-based; details: ATCC12228, 37° C., 18 h
[12] = system: Klebsiella pneumoniae KPN-15-1; test: as above; type: cell-based; details: KPN151, 37° C., 18 h, read-out: MIC Klebsiella pneumoniae KPN-15-1
[13] = system: Acinetobacter baumannii ATCC 19606; test: as above; type: cell-based; details: ATCC19606, 37° C., 18 h, read-out: MIC Acinetobacter baumannii ATCC 19606
[14] = system: Pseudomonas aeruginosa ATCC 27853; test: as above; type: cell-based; details: ATCC27853, 37° C., 18 h, read-out: MIC Pseudomonas aeruginosa ATCC 27853
[15] = system: Staphylococcus epidermidis MRSE 15-1; test: as above; type: cell-based; details: 37° C., 18 h
[16] = system: Staphylococcus aureus ATCC 25923; test: as above; type: cell-based; details: ATCC25923, 37° C., 18 h
[17] = system: Escherichia coli ATCC25922; details: prior art value; cited from earlier work
[18] = system: Escherichia coli ATCC 35218; test: In vitro antibacterial activity (MIC), microbroth dilution; type: cell-based; details: ATCC35218, 37° C., 18 h, read-out: MIC Escherichia coli ATCC 35218
[19] = system: Enterococcus faecalis ATCC 51575; test: as above; type: cell-based; details: ATCC51575, 37° C., 18 h
[20] = system: Enterococcus faecium EFM 19-1; test: as above; type: cell-based; details: EFM191, 37° C., 18 h

For `CCc1[nH]c(C(=O)N[C@@H]2CCN(c3nnc(C(C)(C)O)s3)C[C@@H]2OC)nc1Cl` [DS2969, reference compound], the MIC [1] is listed as 0.5 µg/mL (≈ 1.17 µM), the MIC [2] is listed as 16 µg/mL (≈ 37.3 µM) and the “MIC Staphylococcus aureus ATCC 29213 (background)” value [3] is listed as 0.2 µg/mL (≈ 0.466 µM). It also gave an MIC [4] of 32 µg/mL (≈ 74.6 µM), an ED50 [5] greater than 10 mg/kg and an MIC [6] greater than 64 µg/mL. For the same compound, the MIC [7] was 0.5 µg/mL (≈ 1.17 µM), the MIC [8] was 0.5 µg/mL (≈ 1.17 µM) and the MIC [9] was 0.5 µg/mL (≈ 1.17 µM). It also gave an MIC [10] of 0.654 µg/mL (≈ 1.52 µM), an MIC [11] of 0.5 µg/mL (≈ 1.17 µM) and an MIC [12] greater than 64 µg/mL. For the same compound, the MIC [13] was greater than 64 µg/mL, the MIC [14] was greater than 64 µg/mL and the MIC [15] was 0.5 µg/mL (≈ 1.17 µM). The MIC [16] was 0.5 µg/mL (≈ 1.17 µM), the “MIC Escherichia coli ATCC25922 (background)” value [17] was 32 µg/mL (≈ 74.6 µM) and the MIC [18] was 32 µg/mL (≈ 74.6 µM). It also gave an MIC [19] of 0.5 µg/mL (≈ 1.17 µM) and an MIC [20] of 0.5 µg/mL (≈ 1.17 µM).
